The results in this text go back to patent publication US7446199B2, “Compositions useful as inhibitors of protein kinases” (Vertex Pharmaceuticals Incorporated, priority 2003, dated 2008).

Molecules are shown by their SMILES.

For this assay, the target named is T1, TAK1A-TAB fusion protein (Homo sapiens, UniProt O43318).
T1 construct: using 20 nM TAK1A-TAB fusion protein
T1 sequence (O43318 with tags, fused parts or gaps isoform O43318-2 limits assumed): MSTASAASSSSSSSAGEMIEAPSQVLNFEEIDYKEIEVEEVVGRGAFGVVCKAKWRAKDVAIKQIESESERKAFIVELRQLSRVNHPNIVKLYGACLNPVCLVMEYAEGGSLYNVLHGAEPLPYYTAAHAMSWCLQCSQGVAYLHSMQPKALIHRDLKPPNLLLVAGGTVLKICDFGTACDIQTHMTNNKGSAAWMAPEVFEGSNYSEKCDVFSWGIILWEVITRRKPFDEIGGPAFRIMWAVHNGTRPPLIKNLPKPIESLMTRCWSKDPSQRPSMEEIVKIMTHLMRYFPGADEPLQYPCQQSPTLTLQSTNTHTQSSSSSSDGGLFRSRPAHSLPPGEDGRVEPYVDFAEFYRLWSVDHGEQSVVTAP
Put plainly: TAK-1 inhibition assay, radiometric filter binding assay. It counts as biochemical. Particulars: 50 μM ATP, 12 μM bovine myelin basic protein, 20 nM TAK1A-TAB fusion protein. As to the method:
Compounds were screened for their ability to inhibit TAK1A kinase activity using a radiometric filter binding assay. Reactions were carried out in a solution containing Buffer A (100 mM HEPES (pH 7.5), 10 mM MgCl2), 25 mM NaCl, 2 mM DTT, and 1.5% DMSO. Final substrate concentrations in the assay were 50 μM ATP (a mixture of unlabeled ATP (Sigma Chemicals, St Louis, Mo.) and ^33P-labeled ATP (PerkinElmer Life Sciences, Boston, Mass.) for a final specific activity of 50 Ci/mol), and 12 μM bovine myelin basic protein (MBP, Vertex Pharmaceuticals, Cambridge, Mass.). Reactions were carried out at ambient temperature (˜20° C.) using 20 nM TAK1A-TAB fusion protein. Under these conditions the extent of reaction is linear with time for a period of 2 hours.
A test compound of the present invention (1 μL in DMSO) was combined with ATP and Buffer A in a final volume of 47 μL in a 96 well plate. Typically, a 6 point titration was conducted by preparing serial dilutions (from 10 mM compound stocks) with DMSO of the test compounds of the present invention in daughter plates, for final concentrations spanning 0.046 μM to 3.73 μM. The reaction was initiated by the addition of 20 μl of an enzyme stock solution consisting of TAK1A-TAB fusion (described by Sugita, T. et al. in Biochem. Biophys. Res. Comm. 2002, 297, 1277-1281), MBP, Buffer A, NaCl, and DTT. The reaction was allowed to proceed for two hours at ambient temperature, then quenched with an equal volume of 10 mM unlabeled ATP in 10% trichloroacetic acid. A 110 μL aliquot of the quenched reaction was transferred to a Multiscreen PH filter plate (Millipore, Billerica, Mass.) and allowed to incubate at ambient temperature overnight (typically 16-20 hours). Following incubation the filter plates were washed with 3×150 μL aliquots of 5% trichloroacetic acid using a modified Biotek Elx405 plate washer. A 70 μL aliquot of Microscint 20 scintillation fluid (PerkinElmer) was added to each well, and the plate was then sealed and read on a TopCount NXT microplate scintillation counter (PerkinElmer). The Ki values were determined from the rate data as a function of inhibitor concentration.

A word on the Ki: it is the dissociation constant of the complex between target and ligand, obtained from inhibition or displacement. `Fc1cccc(-n2cnnc2-c2c[nH]c3ncc(-c4ccc(N5CCC[C@H]5CN5CCCC5)nc4)cc23)c1F` [Compound 115, 3-[4-(2,3-Difluoro-phenyl)-4H-[1,2,4]triazol-3-yl]-5-[6-(2-pyrrolidin-1-ylmethyl-pyrrolidin-1-yl)-pyridin-3-yl]-1H-pyrrolo[2,3-b]pyridine] gave an inhibition constant Ki of 0.2 to 1 µM. The same measure for `Fc1cccc(-c2cnoc2-c2c[nH]c3ncc(C4CCNCC4)cc23)c1F` [Compound 62, 3-[4-(2,3-Difluoro-phenyl)-isoxazol-5-yl]-5-piperidin-4-yl-1H-pyrrolo[2,3-b]pyridine]: 1 to 12.5 µM; for `Fc1cccc(-n2cnnc2-c2c[nH]c3ncc(-c4ccncc4)cc23)c1F` [Compound 114, 3-[4-(2,3-Difluoro-phenyl)-4H-[1,2,4]triazol-3-yl]-5-pyridin-4-yl-1H-pyrrolo[2,3-b]pyridine]: 1 to 12.5 µM.

With `CCN1CCC(c2cnc3[nH]cc(-c4oncc4-c4cccc(F)c4F)c3c2)CC1` [Compound 72, 3-[4-(2,3-Difluoro-phenyl)-isoxazol-5-yl]-5-(1-ethyl-piperidin-4-yl)-1H-pyrrolo[2,3-b]pyridine], the Ki was 1 to 12.5 µM. Take `COc1ccnc(-c2cnc3[nH]cc(-c4oncc4-c4cccc(F)c4F)c3c2)c1` [Compound 78, 3-[4-(2,3-Difluoro-phenyl)-isoxazol-5-yl]-5-(4-methoxy-pyridin-2-yl)-1H-pyrrolo[2,3-b]pyridine]: the Ki lay in the range of 0.2 to 1 µM. As for `OC1CCN(c2ccc(-c3cnc4[nH]cc(-c5nncn5-c5cccc(F)c5F)c4c3)cn2)CC1` [Compound 116, 5′-{3-[4-(2,3-Difluoro-phenyl)-4H-[1,2,4]triazol-3-yl]-1H-pyrrolo[2,3-b]pyridin-5-yl}-3,4,5,6-tetrahydro-2H-[1,2′]bi-pyridinyl-4-ol], the figure is 0.2 to 1 µM.

Turning to `Fc1cccc(-n2cnnc2-c2c[nH]c3ncc(-c4ccc(CN5CCOCC5)cc4)cc23)c1F` [Compound 109, 3-[4-(2,3-Difluoro-phenyl)-4H-[1,2,4]triazol-3-yl]-5-(4-morpholin-4-ylmethyl-phenyl)-1H-pyrrolo[2,3-b]pyridine], the Ki lay within 0.2 to 1 µM. Compound `CN1CCN(c2ccc(-c3cnc4[nH]cc(-c5nncn5-c5cccc(F)c5F)c4c3)cn2)CC1` [Compound 112] registered a Ki of 1 to 12.5 µM. As to `CS(=O)(=O)n1ccc2cc(-c3cnc4[nH]cc(-c5oncc5-c5cccc(F)c5F)c4c3)cnc21` [Compound 97, 3′-[4-(2,3-Difluoro-phenyl)-isoxazol-5-yl]-1-methanesulfonyl-1H, 1′H-[5,5′]bi[pyrrolo[2,3-b]pyridinyl]], the Ki was in the range of 0.2 to 1 µM. The same measure for `CN1CCCN(c2ccc(-c3cnc4[nH]cc(-c5nncn5-c5cccc(F)c5F)c4c3)cn2)CC1` [Compound 117, 3-[4-(2,3-Difluoro-phenyl)-4H-[1,2,4]triazol-3-yl]-5-[6-(4-methyl-[1,4]diazepan-1-yl)-pyridin-3-yl]-1H-pyrrolo [2,3-b]-pyridine]: 0.2 to 1 µM. The same measure for `Oc1cnc2[nH]cc(-c3oncc3-c3cccc(Cl)c3Cl)c2c1` [Compound 48, 3-[4-(2,3-Dichloro-phenyl)-isoxazol-5-yl]-1H-pyrrolo[2,3-b]pyridin-5-ol]: 0.2 to 1 µM; for `CN(C)C(=O)c1ccc(-c2cnc3[nH]cc(-c4oncc4-c4cccc(F)c4F)c3c2)nc1` [Compound 79, 6-{3-[4-(2,3-Difluoro-phenyl)-isoxazol-5-yl]-1H-pyrrolo [2,3-b]pyridin-5-yl}-N,N-dimethyl-nicotinamide]: 0.2 to 1 µM; for `COc1cnc2[nH]cc(-c3oncc3-c3cccc(Cl)c3Cl)c2c1` [Compound 49, 3-[4-(2,3-Dichloro-phenyl)-isoxazol-5-yl]-5-methoxy-1H-pyrrolo[2,3-b]pyridine]: 0.2 to 1 µM. The same measure for `Fc1cccc(-c2cnoc2-c2c[nH]c3ncc(C4=CCC(NCc5ccccc5)CC4)cc23)c1F` (stereo not drawn) [Compound 136, Benzyl-(4-{3-[4-(2,3-difluoro-phenyl)-isoxazol-5-yl]-1H-pyrrolo[2,3-b]pyridin-5-yl}-cyclohex-3-enyl)-amine]: less than 0.2 µM. Compound `CN1CCN(c2ccc(-c3cnc4[nH]cc(-c5nncn5-c5cccc(F)c5F)c4c3)cc2)CC1` [Compound 110, 3-[4-(2,3-Difluoro-phenyl)-4H-[1,2,4]triazol-3-yl]-5-[4-(4-methyl-piperazin-1-yl)-phenyl]-1H-pyrrolo[2,3-b]pyridine] showed an inhibition constant (Ki) of less than 0.2 µM. Take `Fc1cccc(-n2cnnc2-c2c[nH]c3ncc(-c4ccc(N5CCCC5)nc4)cc23)c1F` [Compound 118, 3-[4-(2,3-Difluoro-phenyl)-4H-[1,2,4]triazol-3-yl]-5-(6-pyrrolidin-1-yl-pyridin-3-yl)-1H-pyrrolo[2,3-b]pyridine]: the Ki lay in the range of 0.2 to 1 µM.

As for `CN(C)CC#Cc1cnc2[nH]cc(-c3oncc3-c3cccc(F)c3F)c2c1` [Compound 53, (3-{3-[4-(2,3-Difluoro-phenyl)-isoxazol-5-yl]-1H-pyrrolo[2,3-b]pyridin-5-yl}-prop-2-ynyl)-dimethyl-amine], the inhibitory constant (Ki) lay in the range of 0.2 to 1 µM.

On to `CN(C)C1CC=C(c2cnc3[nH]cc(-c4oncc4-c4cccc(F)c4F)c3c2)CC1` (stereo not drawn) [Compound 138, (4-{3-[4-(2,3-Difluoro-phenyl)-isoxazol-5-yl]-1H-pyrrolo[2,3-b]pyridin-5-yl}-cyclohex-3-enyl)-dimethyl-amine], for which the Ki was less than 0.2 µM. The same measure for `CS(=O)(=O)NC1CC=C(c2cnc3[nH]cc(-c4oncc4-c4cccc(F)c4F)c3c2)CC1` (stereo not drawn) [Compound 140, N-(4-{3-[4-(2,3-Difluoro-phenyl)-isoxazol-5-yl]-1H-pyrrolo[2,3-b]pyridin-5-yl}-cyclohex-3-enyl)-methanesulfonamide]: less than 0.2 µM; for `Fc1ccc(-c2cnc3[nH]cc(-c4oncc4-c4cccc(F)c4F)c3c2)cn1` [Compound 69, 3-[4-(2,3-Difluoro-phenyl)-isoxazol-5-yl]-5-(6-fluoro-pyridin-3-yl)-1H-pyrrolo[2,3-b]pyridine]: 0.2 to 1 µM; for `Fc1cccc(-n2cnnc2-c2c[nH]c3ncc(-c4cccnc4)cc23)c1F` [Compound 113, 3-[4-(2,3-Difluoro-phenyl)-4H-[1,2,4]triazol-3-yl]-5-pyridin-3-yl-1H-pyrrolo[2,3-b]pyridine]: 1 to 12.5 µM. Turning to `NC1CC=C(c2cnc3[nH]cc(-c4oncc4-c4cccc(F)c4F)c3c2)CC1` (stereo not drawn) [Compound 137, 4-{3-[4-(2,3-Difluoro-phenyl)-isoxazol-5-yl]-1H-pyrrolo [2,3-b]pyridin-5-yl}-cyclohex-3-enylamine], the Ki was less than 0.2 µM. As for `CN(C)CCNc1ccc(-c2cnc3[nH]cc(-c4nncn4-c4cccc(F)c4F)c3c2)cn1` [Compound 119, N′-(5-{3-[4-(2,3-Difluoro-phenyl)-4H-[1,2,4]triazol-3-yl]-1H-pyrrolo[2,3-b]pyridin-5-yl}-pyridin-2-yl)-N,N-dimethyl-ethane-1,2-diamine], the figure is 1 to 12.5 µM; as for `Fc1cccc(-c2cnoc2-c2c[nH]c3ncc(C4=CCC(N5CCOCC5)CC4)cc23)c1F` (stereo not drawn) [Compound 139, 3-[4-(2,3-Difluoro-phenyl)-isoxazol-5-yl]-5-(4-morpholin-4-yl-cyclohex-1-enyl)-1H-pyrrolo[2,3-b]pyridine], 0.2 to 1 µM.
